One test concerns the target T1, PDE III (Homo sapiens, UniProt Q14432).
T1 construct: Fractions containing PDE III activity are pooled and dialyzed; from tissue; host or cells: human platelets (100,000 x g supernatant, DEAE-Trisacryl M fraction)
In words: Type III PDE activity, hydrolysis of [3H]-cyclic AMP. It is filed as biochemical. The following applies: enzyme from human platelets; cyclic AMP 0.2 µM; 2.5% dimethyl sulfoxide. As for the experimental part:
The Type III PDE is isolated from human platelets using a procedure similar to that previously described by Weishaar, R.E.; Burrows, S.D.; Kobylarg, D.C., Quade, N.M.; Evans, D.B., Biochem. Pharmacol., 35:787, 1986. Briefly, 1-2 units of platelets are suspended in an equal volume of buffer (20 mM Tris-HCl, pH 7.5, containing 2 mM magnesium acetate, 1 mM dithiothreitol, and 5 mM Na2 EDTA). The protease inhibitor phenyl methyl-sulfonyl fluoride (PMSF) is also included in this buffer at a final concentration of 200 µM. The suspension is homogenized using a polytron and the homogenate centrifuged at 100,000 x g for 60 minutes. This and all subsequent procedures are performed at 0-4°C. The supernatant is then filtered through four layers of gauze and applied to a DEAE-Trisacryl M column, previously equilibrated with buffer B (20 mM Tris-HCl, pH 7.5, containing 1 mM magnesium acetate, 1 mM dithiothreitol and 200 µM PMSF). After application of the sample, the column is washed with several bed volumes of buffer B, after which the different forms of PDE are eluted from the column using two successive linear NaCl gradients (0.05-0.15 M, 300 ml total; 0.15-0.40 M, 200 ml total). Five milliliter fractions are collected and assayed for cyclic AMP and cyclic GMP PDE activity. Fractions containing PDE III activity are pooled and dialyzed overnight against 4 liters of buffer B. The dialyzed PDE III is then concentrated to 10% of the original volume, diluted to 50% with ethylene glycol monoethyl ether and stored at -20°C.
Enzyme activity is assessed by measuring the hydrolysis of [^3H]-cyclic AMP, as described by Thompson, W.J., Teraski, W.L., Epstein, P.N., Strada, S.J.: Adv. Cyclic Nucleotide Res. 10:69, 1979. The cyclic AMP concentration used in this assay is 0.2 µM, which approximates to the Km value. Protein concentration is adjusted to ensure that no more than 15% of the available substrate is hydrolyzed during the incubation period.
All test compounds are dissolved in dimethyl sulfoxide (final concentration of 2.5%).
The compounds are tested over concentration range: 0.1, 1, 10, 100 uM (n=1), and IC50 determinations are made using 5 appropriate concentrations (n=2).

The next test deals with T2, PDE V (Homo sapiens, UniProt O76074).
T2 construct: from tissue; host or cells: platelets (supernatant, DEAE-Trisacryl M fraction)
The experiment in a line: Type V PDE activity, hydrolysis of [3H]-cyclic GMP. It is filed as biochemical. Particulars: enzyme from platelets; cyclic GMP 0.2 uM; 2.5% dimethyl sulfoxide. The procedure: Briefly, 1-2 units of platelets are suspended in an equal volume of buffer A (20 mM Tris-HCl, pH 7.5, containing 2 mM magnesium acetate, 1 mM dithiothreitol, and 5 mM Na2EDTA) using a polytron. The proteinase inhibitor phenylmethylsulfonyl fluoride (PMSF) are also included in this buffer at a final concentration of 200 uM. This and all subsequent procedures are performed at 0-4°C. The homogenate is then centrifuged at […] for 60 minutes. The supernatant is then removed and filtered through four layers of gauze and applied to a DEAE-Trisacryl M column. The column is washed with several bed volumes of buffer B (20 mM Tris-HCl, pH 7.5, containing 2 mM magnesium acetate, 1 mM diothiothreitol, and […] PMSF) and eluted by two successive linear NaCl gradients (0.05-0.15 M, 300 ml total; 0.15-0.40 M, 200 ml total). Five ml fractions are collected and assayed for cyclic AMP and cyclic GMP PDE activity. Fractions that contain PDE V are pooled and dialyzed overnight against 4 L of buffer C (20 mM Tris-HCl, pH 7.5, containing 2 mM magnesium acetate and proteinase inhibitors). The dialyzed PDE V is then concentrated to 10% of the original volume, diluted to 50% with ethylene glycol monoethyl ether and stored at -20°C. PDE V can typically be retained for up to four weeks with little or no loss of activity.
The reference Type V PDE inhibitor zaprinast is evaluated with each assay.

A word on the IC50: it is the concentration that inhibits the measured activity by half. High values mean a need for much substance, low ones inhibition by little substance.

T1 sequence (Q14432 whole entry): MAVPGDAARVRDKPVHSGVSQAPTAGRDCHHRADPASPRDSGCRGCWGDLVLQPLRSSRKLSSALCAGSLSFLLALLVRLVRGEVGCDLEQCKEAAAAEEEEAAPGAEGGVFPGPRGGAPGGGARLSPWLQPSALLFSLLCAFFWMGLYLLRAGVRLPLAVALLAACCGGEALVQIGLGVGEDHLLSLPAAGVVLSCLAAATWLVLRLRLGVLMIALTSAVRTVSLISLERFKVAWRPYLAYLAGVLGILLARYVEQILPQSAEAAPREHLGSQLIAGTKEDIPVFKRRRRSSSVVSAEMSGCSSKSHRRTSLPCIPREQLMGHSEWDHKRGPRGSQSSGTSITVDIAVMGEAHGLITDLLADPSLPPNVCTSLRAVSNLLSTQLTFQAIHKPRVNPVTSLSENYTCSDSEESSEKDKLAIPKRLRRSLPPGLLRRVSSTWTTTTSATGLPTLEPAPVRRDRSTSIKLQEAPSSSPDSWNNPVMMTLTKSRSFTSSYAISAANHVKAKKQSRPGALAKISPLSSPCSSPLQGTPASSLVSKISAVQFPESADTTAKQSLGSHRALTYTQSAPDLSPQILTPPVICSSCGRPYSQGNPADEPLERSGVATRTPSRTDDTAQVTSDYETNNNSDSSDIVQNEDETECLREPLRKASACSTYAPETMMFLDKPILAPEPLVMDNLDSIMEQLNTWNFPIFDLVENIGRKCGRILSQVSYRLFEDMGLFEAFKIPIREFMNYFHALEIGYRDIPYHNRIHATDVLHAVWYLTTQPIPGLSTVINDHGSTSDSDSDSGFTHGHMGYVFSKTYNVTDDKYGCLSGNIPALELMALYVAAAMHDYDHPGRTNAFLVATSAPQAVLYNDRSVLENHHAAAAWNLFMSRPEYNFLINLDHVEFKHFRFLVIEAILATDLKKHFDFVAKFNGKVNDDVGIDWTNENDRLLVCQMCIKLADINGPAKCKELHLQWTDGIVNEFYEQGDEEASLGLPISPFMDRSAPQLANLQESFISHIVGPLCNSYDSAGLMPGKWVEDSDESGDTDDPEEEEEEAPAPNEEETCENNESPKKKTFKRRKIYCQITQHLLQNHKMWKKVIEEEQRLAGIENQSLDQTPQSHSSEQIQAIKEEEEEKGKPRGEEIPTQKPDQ

On to `CC(C)(C)c1cc(Cc2nc3cc(Cl)cc(C#Cc4ccccn4)c3o2)cc(C(C)(C)C)c1O` [Example 1, 5-chloro-2-(3,5-di-t-butyl-4-hydroxy-benzyl)-7-(2-(2-pyridyl)-ethynyl)-benzoxazole], for which the IC50 against PDE III and against PDE V was greater than 300 µM in each case.

Consider `CC(C)(C)c1cc(Cc2nc3cccc(C#Cc4ccccn4)c3o2)cc(C(C)(C)C)c1O` [Example 2, 2-(3,5-di-t-butyl-4-hydroxy-benzyl)-7-(2-(2-pyridyl)-ethynyl)-benzoxazole], for which the IC50 on PDE III was greater than 300 µM; at PDE V, 35.1 µM. With `CC(C)(C)c1cc(Cc2nc3cc(Cl)cc(C#Cc4nccs4)c3o2)cc(C(C)(C)C)c1O` [Example 3, 5-chloro-2-(3,5-di-t-butyl-4-hydroxy-benzyl)-7-(2-(2-thiazolyl)-ethynyl)-benzoxazole], the IC50 against PDE III and at PDE V was greater than 300 µM in each case. `COc1ccc(C2CNC(=O)C2)cc1OC1CCCC1` (stereo not shown) [Rolipram, reference compound] displayed an IC50 on PDE III of 620 µM.
